# In PubChem BioAssay (NCI):
#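 Cultured in 96-well plates, cells were exposed to test compound for 48 hours across five concentrations. At the GI50, growth is halved. At the TGI there is no net growth.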
# Experiments:
# Test in all cases: NCI-60 cell line screen, 48 h
# [1] = tested on: COLO 205 colon
# [2] = tested on: PC-3 prostate
# [3] = tested on: HOP-92 NSCLC
# [4] = tested on: HOP-62 NSCLC
# [5] = tested on: NCI-H23 lung
# [6] = tested on: MALME-3M melanoma
# [7] = tested on: SF-268 CNS
# [8] = tested on: OVCAR-4 ovarian
# [9] = tested on: HCT-116 colon
# [10] = tested on: NCI-H460 lung
# [11] = tested on: CAKI-1 renal
# [12] = tested on: MCF7 breast
# [13] = tested on: A498 renal
# [14] = tested on: SNB-19 CNS
# [15] = tested on: M14 melanoma
# [16] = tested on: SK-MEL-2 melanoma
# [17] = tested on: OVCAR-8 ovarian
# [18] = tested on: TK-10 renal
# [19] = tested on: SNB-75 CNS
# [20] = tested on: UO-31 renal
# [21] = tested on: ACHN renal
# [22] = tested on: A549 NSCLC
# [23] = tested on: SF-539 CNS
# [24] = tested on: CCRF-CEM leukemia
# [25] = tested on: UACC-257 melanoma
# [26] = tested on: RPMI-8226 leukemia
# [27] = tested on: K-562 leukemia
# [28] = tested on: NCI/ADR-RES ovarian
# [29] = tested on: 786-0 renal
# [30] = tested on: OVCAR-3 ovarian
# [31] = tested on: HCT-15 colon
# [32] = tested on: HT29 colon
# [33] = tested on: MDA-MB-435
# [34] = tested on: IGROV1 ovarian
# [35] = tested on: MDA-MB-231 breast
# [36] = tested on: SW-620 colon
# [37] = tested on: HCC-2998 colon
# [38] = tested on: SR leukemia
# [39] = tested on: BT-549 breast
# [40] = tested on: SK-MEL-28 melanoma
# [41] = tested on: DU-145 prostate
# [42] = tested on: T-47D breast
# [43] = tested on: NCI-H522 lung
# [44] = tested on: SF-295 CNS
# [45] = tested on: U251 CNS
# [46] = tested on: UACC-62 melanoma
# [47] = tested on: SN12C renal
# [48] = tested on: KM12 colon
# [49] = tested on: LOX IMVI melanoma
# [50] = tested on: HL-60(TB) leukemia
# [51] = tested on: SK-OV-3 ovarian
# [52] = tested on: HS 578T breast
# [53] = tested on: NCI-H226 lung
# [54] = tested on: SK-MEL-5 melanoma
# [55] = tested on: OVCAR-5 ovarian
# [56] = tested on: MOLT-4 leukemia
# [57] = tested on: RXF 393 renal
smiles,measurement,setting,value
O=C(Nc1cccc(-n2cc(-c3ccncc3)c(-c3ccc(Cl)c(O)c3)n2)c1)Nc1cccc(C(F)(F)F)c1,GI50,[1],7.9 µM
same,TGI,[1],23.8 µM
same,GI50,[2],0.948 µM
same,TGI,[2],22.4 µM
same,GI50,[3],0.509 µM
same,TGI,[3],2.23 µM
same,GI50,[4],6.86 µM
same,TGI,[4],> 32.5 µM
same,GI50,[5],1.9 µM
same,TGI,[5],> 32.5 µM
same,GI50,[6],1.81 µM
same,TGI,[6],20.1 µM
same,GI50,[7],1.95 µM
same,TGI,[7],15.8 µM
same,GI50,[8],3.18 µM
same,TGI,[8],> 32.5 µM
same,GI50,[9],1.39 µM
same,TGI,[9],8.26 µM
same,GI50,[10],1.18 µM
same,TGI,[10],29 µM
same,GI50,[11],1.75 µM
same,TGI,[11],> 32.5 µM
same,GI50,[12],1.34 µM
same,TGI,[12],> 32.5 µM
same,GI50,[13],2.24 µM
same,TGI,[13],> 32.5 µM
same,GI50,[14],1.91 µM
same,TGI,[14],> 32.5 µM
same,GI50,[15],1.4 µM
same,TGI,[15],10.8 µM
same,GI50,[16],2.02 µM
same,TGI,[16],10.8 µM
same,GI50,[17],1.57 µM
same,TGI,[17],> 32.5 µM
same,GI50,[18],2.12 µM
same,TGI,[18],> 32.5 µM
same,GI50,[19],3.65 µM
same,TGI,[19],> 32.5 µM
same,GI50,[20],1.86 µM
same,TGI,[20],> 32.5 µM
same,GI50,[21],1.29 µM
same,TGI,[21],> 32.5 µM
same,GI50,[22],1.37 µM
same,TGI,[22],> 32.5 µM
same,GI50,[23],3.54 µM
same,TGI,[23],11.6 µM
same,GI50,[24],1.4 µM
same,TGI,[24],> 32.5 µM
same,GI50,[25],4.34 µM
same,TGI,[25],19.1 µM
same,GI50,[26],1.34 µM
same,TGI,[26],> 32.5 µM
same,GI50,[27],1.44 µM
same,TGI,[27],> 32.5 µM
same,GI50,[28],2.14 µM
same,TGI,[28],> 32.5 µM
same,GI50,[29],4.69 µM
same,TGI,[29],> 32.5 µM
same,GI50,[30],1.06 µM
same,TGI,[30],6.13 µM
same,GI50,[31],1.51 µM
same,TGI,[31],> 32.5 µM
same,GI50,[32],9.82 µM
same,TGI,[32],> 32.5 µM
same,GI50,[33],1.49 µM
same,TGI,[33],12.6 µM
same,GI50,[34],1.64 µM
same,TGI,[34],> 32.5 µM
same,GI50,[35],3.59 µM
same,TGI,[35],26.8 µM
same,GI50,[36],3.82 µM
same,TGI,[36],> 32.5 µM
same,GI50,[37],7.26 µM
same,TGI,[37],> 32.5 µM
same,GI50,[38],1.82 µM
same,TGI,[38],20 µM
same,GI50,[39],6.51 µM
same,TGI,[39],21.4 µM
same,GI50,[40],4.11 µM
same,TGI,[40],> 32.5 µM
same,GI50,[41],1.76 µM
same,TGI,[41],> 32.5 µM
same,GI50,[42],2.47 µM
same,TGI,[42],> 32.5 µM
same,GI50,[43],1.46 µM
same,TGI,[43],14.5 µM
same,GI50,[44],0.962 µM
same,TGI,[44],4.26 µM
same,GI50,[45],1.59 µM
same,TGI,[45],7.65 µM
same,GI50,[46],1.65 µM
same,TGI,[46],6.91 µM
same,GI50,[47],2.01 µM
same,TGI,[47],> 32.5 µM
same,GI50,[48],1.33 µM
same,TGI,[48],> 32.5 µM
same,GI50,[49],2.53 µM
same,TGI,[49],9.58 µM
same,GI50,[50],1.45 µM
same,TGI,[50],> 32.5 µM
same,GI50,[51],4.97 µM
same,TGI,[51],> 32.5 µM
same,GI50,[52],3.31 µM
same,TGI,[52],> 32.5 µM
same,GI50,[53],7.35 µM
same,TGI,[53],> 32.5 µM
same,GI50,[54],1.3 µM
same,TGI,[54],4.71 µM
same,GI50,[55],13.7 µM
same,TGI,[55],> 32.5 µM
same,GI50,[56],1.92 µM
same,TGI,[56],> 32.5 µM
same,GI50,[57],3.02 µM
same,TGI,[57],12 µM
